Legend:
Ku812 cells (Bcr-Abl) = assay: Cancer cell proliferation, CCK-8, Ku812; type: cell-based; settings: Homo sapiens; Ku812, Bcr-Abl, 72 hours, CCK-8; read-out: GI50
Text: (§1) In the present example, the following cells were used: chronic myelogenous leukemia cells K562 (expressing P210 Bcr-Abl mutant gene), human megakaryocytic leukemia cells MEG-01 (expressing P210 Bcr-Abl mutant gene), human peripheral blood basophilic leukemia cells Ku812 (expressing Bcr-Abl mutant gene) (all above cells purchased from ATCC, USA), human gastrointestinal stromal tumor cell lines GIST-T1 cells (expressing wild-type C-KIT gene) (purchased from Cosmo Bio Co., Ltd., Japan), human gastrointestinal stromal tumor cell lines GIST-882 cells (expressing wild-type C-KIT gene) (presented by the Professor Gray Lab, Dana-Farber Cancer Institute, Harvard University, USA), mouse pro-B cells BaF3 (purchased from ATCC, USA).
(§2) The cells were incubated for 72 hours, and then the number of viable cells was quantified with a microplate reader by using CCK-8 Cell Viability Assay Kit (purchased from Bestbio Company, Shanghai, China) (CCK-8 can be reduced by dehydrogenase in living cells to a highly water-soluble yellow formazan product, and the amount of formazan produced is proportional to the number of living cells).

[1] = test system: P210/BaF3 cells (P210 Bcr-Abl); assay: Cell proliferation, CCK-8, P210/BaF3; type: cell-based; settings: Mus musculus; P210/BaF3, Bcr-Abl, 72 hours, CCK-8; read-out: GI50
Text: (§3) In addition, in the present example, further uses: mouse P210/BaF3 (stably expressing P210 Bcr-Abl mutant gene), mouse Tel-ABL-BaF3 (stably expressing wild-type ABL kinase), mouse Tel-cKit-BaF3 (stably expressing C-KITwild-type kinase), mouse Tel-cKit/V559D-BaF3 (stably expressing C-KIT V559D mutant kinase), mouse Tel-cKit/V559D/V654A-BaF3 (stably expressing C-KIT V559D/V654A mutant kinase), mouse Tel-cKit/N822K-BaF3 (stably expressing C-KIT N822K mutant kinase), mouse Tel-cKit/V654A-BaF3 (stably expressing C-KIT V654A mutant kinase), mouse Tel-cKit/L567P-BaF3 (stably expressing C-KIT L567P mutant kinase), mouse Tel-cKit/T670I-BaF3 (stably expressing C-KIT T670I mutant kinase), mouse Tel-PDGFRα-BaF3 (stably expressing PDGFRα kinase), mouse Tel-PDGFRβ-BaF3 (stably expressing PDGFRβ kinase), mouse Tel-VEGFR2-BaF3 (stably expressing VEGFR2 kinase), mouse Tel-RET-BaF3 (stably expressing RET kinase). […]
as §2

[2] = test system: Tel-ABL-BaF3 cells (ABL WT); assay: Cell proliferation, CCK-8, Tel-ABL-BaF3; type: cell-based; settings: Mus musculus; Tel-ABL-BaF3, ABL WT, 72 hours, CCK-8; read-out: GI50
Text: as §3, §2

GIST-T1 cells [3] = assay: Cancer cell proliferation, CCK-8, GIST-T1; type: cell-based; settings: Homo sapiens, GISTT1, GIST-T1, KIT WT, 72 hours
Text: as §1, §2

[4] = test system: Tel-cKit/V559D-BaF3 cells (KIT V559D); assay: Cell proliferation, CCK-8, Tel-cKit/V559D-BaF3; type: cell-based; settings: Mus musculus, 72 hours
Text: (§4) In addition, in the present example, further uses: mouse P210/BaF3 (stably expressing P210 Bcr-Abl mutant gene), mouse Tel-ABL-BaF3 (stably expressing wild-type ABL kinase), mouse Tel-cKit-BaF3 (stably expressing C-KITwild-type kinase), mouse Tel-cKit/V559D-BaF3 (stably expressing C-KIT V559D mutant kinase), mouse Tel-cKit/V559D/V654A-BaF3 (stably expressing C-KIT V559D/V654A mutant kinase), mouse Tel-cKit/N822K-BaF3 (stably expressing C-KIT N822K mutant kinase), mouse Tel-cKit/V654A-BaF3 (stably expressing C-KIT V654A mutant kinase), mouse Tel-cKit/L567P-BaF3 (stably expressing C-KIT L567P mutant kinase), mouse Tel-cKit/T670I-BaF3 (stably expressing C-KIT T670I mutant kinase), mouse Tel-PDGFRα-BaF3 (stably expressing PDGFRα kinase), mouse Tel-PDGFRβ-BaF3 (stably expressing PDGFRβ kinase), mouse Tel-VEGFR2-BaF3 (stably expressing VEGFR2 kinase), mouse Tel-RET-BaF3 (stably expressing RET kinase). The above cell lines were all constructed by our laboratory according to the following method: the kinase region sequences of human P210 Bcr-Abl, ABL, C-KIT, C-KIT V559D, C-KIT V559D/V654A, C-KIT N822K, C-KIT V654A, C-KIT L567P, C-KIT T670I, PDGFRα, PDGFRβ, VEGFR2, RET were amplified respectively by PCR, inserted respectively into MSCV-Puro vectors harboring N-terminal TEL fragment and/or NPM fragment and/or TPR fragment (Clontech), then the vectors were stably transfected into mouse BaF3 cells by retrovirus methods and growth factor IL-3 was removed, eventually obtaining cell lines that are transferred protein (P210 Bcr-Abl, ABL, C-KIT, C-KIT V559D, C-KIT V559D/V654A, C-KIT N822K, C-KIT V654A, C-KIT L567P, C-KIT T670I, PDGFRα, PDGFRβ, VEGFR2, RET)-dependent.
as §2

[5] = test system: Tel-cKit/V559D/V654A-BaF3 cells (KIT V559D/V654A); assay: Cell proliferation, CCK-8, Tel-cKit/V559D/V654A-BaF3; type: cell-based; settings: Mus musculus, 72 hours
Text: as §4, §2

[6] = test system: Tel-PDGFRα-BaF3 cells (PDGFRα); assay: Cell proliferation, CCK-8, Tel-PDGFRα-BaF3; type: cell-based; settings: Mus musculus, 72 hours
Text: as §4, §2

BaF3 cells = assay: Cell proliferation, CCK-8, parental BaF3; type: cell-based; settings: Mus musculus, 72 hours
Text: as §1, §2

[7] = test system: cells expressing wild-type ABL and mutant Bcr-Abl kinase; assay: Cell proliferation, text summary for ABL/Bcr-Abl cells; type: cell-based; settings: summary of Table 2
Text: as §1, with “USA). […]” for “USA).”
as §2

[8] = test system: phosphorylation of Bcr-Abl kinase and pathway proteins in K562 cells; assay: Effects on cell signaling pathways (phosphorylation), K562; type: cell-based, human; settings: K562, concentration up to 3 μM, 2 hours
GIST-T1 cells [9] = assay: Apoptosis, PARP and Caspase 3 cleavage by Western Blot, GIST-T1; type: cell-based, human; settings: GIST-T1, 0.3 μM, 48 hours
Text: The effects of different concentrations of drugs on protein cleavage of DNA repairase poly(ADP-ribose) polymerase (PARP) and Caspase (cysteinyl aspartate-specific proteinase) 3 at different periods of time were examined by Western Blot.

GIST-882 cells = assay: Cell cycle distribution by flow cytometry, GIST-882; type: cell-based, human; settings: GIST-882, treated 48 hours
[10] = Acute toxicity assay in mice, single oral gavage; type: in vivo; settings: for Number of death (number of death/number of animals in each group): female mice, 7 days observation
Procedure: 1. 4-6 week-old Bal b/c female mice were purchased from Shanghai SLAC Experimental Animal Co., Ltd., and were raised in a SPF-level laboratory. Drinking water and padding were both subjected to aseptic processing via high-pressure disinfection, and all operations of the mice were conducted under aseptic conditions; 10 healthy mice were selected, and were balanced and randomly divided into 5 groups according to their weights.
2. Specific Information for Administration
Route of administration: oral gavage
Observation period: 7 days.
3. Observation Indicators
Weighing frequency: upon grouping, the day of administration (D0) to the seventh day after administration (D7). Based on the mouse weight on D0 (starting value of 100%), the graph of the relative body weight over time was plotted.
3.2. Clinical Symptoms Observation
Strict observation was carried out within 4 hours after administration, and then observation was carried out twice a day for a total of 7 days. Observation was carried out and abnormal symptoms or phenomena in each of animals were recorded.
The number of animals died in each of dosage groups during the observation period.
Comprehensive determination was performed based on animal mortality, clinical symptoms and body weights.

Compound Cc1ccc(NC(=O)c2cccc(C(F)(F)F)c2)cc1OC1CCN(C(=O)c2ccncc2)CC1 [Compound 4] has a GI50 (Ku812 cells (Bcr-Abl)) of 6.71 µM, a GI50 [1] of 6.05 µM and a GI50 [2] of 5.06 µM. For the same compound, the GI50 (GIST-T1 cells [3]) was 0.021 µM, the GI50 [4] was 0.04 µM and the GI50 [5] was 1.05 µM. The GI50 [6] was 0.038 µM, the GI50 (BaF3 cells) was greater than 10 µM and the GI50 [7] was greater than 5 µM. The “phosphorylation of Bcr-Abl kinase” value [8] was “no effect”, the “phosphorylation of proteins such as AKT, ErK” value [8] was “no effect” and the “cleavage of PARP and Caspase 3” value (GIST-T1 cells [9]) was “significant cleavage”. The “effect on cell cycle” value (GIST-882 cells) was “significantly blocked in the GO-G1 phase”, the “Number of death (number of death/number of animals in each group)” value ([10]; 250 mg/kg single oral gavage) was “♀: 0/2:” and the “Number of death (number of death/number of animals in each group)” value ([10]; 500 mg/kg single oral gavage) was “♀: 0/2:”. The “effect on mouse weight” value ([10]; 1000 mg/kg single oral gavage) was “no significant effect on mouse weight”, the “Number of death (number of death/number of animals in each group)” value ([10]; 1000 mg/kg single oral gavage) was “♀: 0/2:” and the “effect on mouse weight” value ([10]; 2000 mg/kg single oral gavage) was “decreased slightly”. The “Number of death (number of death/number of animals in each group)” value ([10]; 2000 mg/kg single oral gavage) was “♀: 0/2:”, the “mouse organs on dissection” value ([10]; dissected after 7 days, single oral gavage) was “no obvious abnormalities” and the “mice died” value ([10]; mouse, in vivo) was “no mouse died”. For the same compound, the maximum tolerated dosage ([10]; mouse, single oral gavage) was 2000 mg/kg.

Reference: patent US10793543B2, “Selective C-KIT kinase inhibitor” (PRECEDO PHARMACEUTICALS CO., LTD, priority 2016, dated 2020)
